# Measurements reported in ChEMBL document CHEMBL1667821, “Synthesis and galectin-binding activities of mercaptododecyl glycosides containing a terminal β-galactosyl group” (Bioorg Med Chem Lett, 2011).
# “And” between values parts separate entries of the source, which are not always exact repeats. Equal values may be shown once. The source made the active and inactive calls. The rule behind the calls is not given here.
# Tests used:
# [1] = target: Galectin-7 (Homo sapiens) (UniProt P47929); test: Binding affinity to human galectin-7 by surface plasmon resonance method
# [2] = target: Galectin-1 (Homo sapiens) (UniProt P09382); test: Binding affinity to human galectin-1 by surface plasmon resonance method
# [3] = target: T1, Galectin-2 (Homo sapiens) (UniProt P05162); test: Binding affinity to human galectin-2 by surface plasmon resonance method
# T1 sequence (whole entry): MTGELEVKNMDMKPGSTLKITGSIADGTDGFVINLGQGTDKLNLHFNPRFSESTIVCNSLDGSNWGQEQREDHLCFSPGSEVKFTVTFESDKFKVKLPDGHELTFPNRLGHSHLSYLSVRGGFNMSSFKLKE
# [4] = target: T2, Galectin-4 (Homo sapiens) (UniProt P56470); test: Binding affinity to human galectin-4 by surface plasmon resonance method
# T2 sequence (whole entry): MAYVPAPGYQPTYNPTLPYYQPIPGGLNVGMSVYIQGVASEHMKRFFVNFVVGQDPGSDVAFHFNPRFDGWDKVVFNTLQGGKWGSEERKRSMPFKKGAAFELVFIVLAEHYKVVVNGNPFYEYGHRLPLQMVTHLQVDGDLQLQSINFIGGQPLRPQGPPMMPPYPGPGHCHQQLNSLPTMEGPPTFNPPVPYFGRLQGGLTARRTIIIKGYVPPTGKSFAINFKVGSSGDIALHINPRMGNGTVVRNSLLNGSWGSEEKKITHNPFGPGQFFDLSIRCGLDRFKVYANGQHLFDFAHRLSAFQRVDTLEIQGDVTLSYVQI
# Galectin-3 = Galectin-3 (Homo sapiens, UniProt P17931); test: Binding affinity to human galectin-3 by surface plasmon resonance method
# [5] = target: T3, Galectin-8 (Homo sapiens) (UniProt O00214); test: Binding affinity to human galectin-8 by surface plasmon resonance method
# T3 sequence (whole entry): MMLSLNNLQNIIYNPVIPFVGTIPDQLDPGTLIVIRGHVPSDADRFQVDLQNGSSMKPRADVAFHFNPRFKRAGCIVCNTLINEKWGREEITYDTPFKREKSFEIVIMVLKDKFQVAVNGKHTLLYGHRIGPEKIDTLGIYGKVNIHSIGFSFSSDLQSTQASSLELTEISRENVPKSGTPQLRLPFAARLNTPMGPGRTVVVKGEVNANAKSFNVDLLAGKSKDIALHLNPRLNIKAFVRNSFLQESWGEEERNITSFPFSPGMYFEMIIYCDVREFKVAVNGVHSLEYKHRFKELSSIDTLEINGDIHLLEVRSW
# [6] = target: T3, Galectin-8 (Homo sapiens); test: (§1) Binding affinity to human galectin-8 component 2 by surface plasmon resonance method
# Galectin-8 [7] = target: T4, Galectin-8 (Homo sapiens, UniProt O00214); test: as §1
# T4 sequence (O00214 whole entry): T3 sequence (whole entry)
# Galectin-4 [8] = target: T5, Galectin-4 (Homo sapiens, UniProt P56470); test: (§2) Binding affinity to human galectin-4 component 2 by surface plasmon resonance method
# T5 sequence (P56470 whole entry): T2 sequence (whole entry)
# [9] = target: T2, Galectin-4 (Homo sapiens); test: as §2
# Galectin-4 [10] = target: T5, Galectin-4; test: (§3) Binding affinity to human galectin-4 component 1 by surface plasmon resonance method
# [11] = target: T2, Galectin-4 (Homo sapiens); test: as §3
# [12] = target: T3, Galectin-8 (Homo sapiens); test: (§4) Binding affinity to human galectin-8 component 1 by surface plasmon resonance method
# Galectin-8 [13] = target: T4, Galectin-8; test: as §4
# Sequence of Galectin-1 (Homo sapiens) (P09382 whole entry): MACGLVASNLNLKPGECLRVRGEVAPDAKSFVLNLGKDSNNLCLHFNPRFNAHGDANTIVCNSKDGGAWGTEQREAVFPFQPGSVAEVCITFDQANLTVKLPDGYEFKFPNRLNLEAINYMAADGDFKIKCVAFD
# Sequence of Galectin-3 (P17931 whole entry): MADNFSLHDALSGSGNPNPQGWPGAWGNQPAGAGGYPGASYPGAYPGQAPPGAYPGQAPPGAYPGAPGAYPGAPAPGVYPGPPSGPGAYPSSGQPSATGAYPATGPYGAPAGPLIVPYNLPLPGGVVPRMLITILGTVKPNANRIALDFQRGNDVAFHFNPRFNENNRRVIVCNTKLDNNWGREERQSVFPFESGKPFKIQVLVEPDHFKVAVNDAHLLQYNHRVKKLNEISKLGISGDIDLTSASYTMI
# Sequence of Galectin-7 (Homo sapiens) (P47929 whole entry): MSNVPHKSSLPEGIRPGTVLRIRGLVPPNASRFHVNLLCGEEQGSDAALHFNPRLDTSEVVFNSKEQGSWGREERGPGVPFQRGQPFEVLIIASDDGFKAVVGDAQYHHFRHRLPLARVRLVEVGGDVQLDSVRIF
Activity [1],Activity [2] [a.u.],Activity [3],Activity [4],Activity (Galectin-3),Activity [5],Ka [6] [M⁻¹ s⁻¹],Kdiss [6],Kd (Galectin-4 [8]),Ka [9] [M⁻¹ s⁻¹],Kdiss [9],Kd (Galectin-4 [10]),Ka [11] [M⁻¹ s⁻¹],Kdiss [11] [×10⁻³ /s],Ka (Galectin-3) [M⁻¹ s⁻¹],Kd (Galectin-3) [nM],Kdiss (Galectin-3),Ka [12] [M⁻¹ s⁻¹],Kdiss [12],Kd (Galectin-8 [13]),Compound,other results
4.2 a.u.,9.5,2 a.u.,457 a.u.,82.3 a.u.,368 a.u.,9.61e+06,2.37 ×10⁻¹ /s,85 nM and 84.7 nM,172000,1.45 ×10⁻² /s,140 nM and 136 nM,13000,1.76,1760,1060,1.86 ×10⁻³ /s,8970,1.39 ×10⁻⁵ /s,1.6 nM and 1.55 nM,OC[C@H]1OC(O[C@H]2[C@H](O)[C@@H](O)[C@H](OCCCCCCCCCCCCS)O[C@@H]2CO)[C@H](O)[C@@H](O)[C@H]1O (some centres undefined),Kd (Galectin-8 [7]): 25 nM and 24.6 nM
inactive,3.4,3.8 a.u.,Active,inactive,34.1 a.u.,,,,,,,,,,,,,,,OC[C@H]1O[C@@H](OCCCCCCCCCCCCS)[C@H](O)[C@@H](O)[C@H]1O,

# Further lines, the compound ahead of its results:
Compound,Activity [1],Activity [2] [a.u.],Activity [3],Activity [4],Activity (Galectin-3),Activity [5],Ka [6] [M⁻¹ s⁻¹],Kdiss [6],Kd (Galectin-4 [8]),Ka [9] [M⁻¹ s⁻¹],Kdiss [9],Kd (Galectin-4 [10]),Ka [11] [M⁻¹ s⁻¹],Kdiss [11] [×10⁻³ /s],Ka (Galectin-3) [M⁻¹ s⁻¹],Kd (Galectin-3) [nM],Kdiss (Galectin-3),Ka [12] [M⁻¹ s⁻¹],Kdiss [12],Kd (Galectin-8 [13]),other results
OC[C@H]1O[C@@H](O[C@H]2C=C[C@@H](OCCCCCCCCCCCCS)O[C@@H]2CO)[C@H](O)[C@@H](O)[C@H]1O,inactive,25.1,13.4 a.u.,Active,5.1 a.u.,Active,,,,,,,,,,,,,,,
OC[C@H]1O[C@@H](O[C@H]2[C@H](O)C[C@@H](OCCCCCCCCCCCCS)O[C@@H]2CO)[C@H](O)[C@@H](O)[C@H]1O,inactive,17.8,11 a.u.,345 a.u.,135 a.u.,74.5 a.u.,35500,1.11 ×10⁻¹ /s,58 nM,65200,3.78 ×10⁻³ /s,300 nM and 304 nM,4630,1.41,1900,1430,2.72 ×10⁻³ /s,18600,6.85 ×10⁻² /s,37 nM and 36.9 nM,Kd (Galectin-8 [7]): 31 nM and 31.3 nM
CC(=O)N[C@H]1[C@@H](OCCCCCCCCCCCCS)O[C@H](CO)[C@@H](O[C@@H]2O[C@H](CO)[C@H](O)[C@H](O)[C@H]2O)[C@@H]1O,0.8 a.u.,4.1,inactive,462 a.u.,167 a.u.,163 a.u.,48700,2.39 ×10⁻³ /s,780 nM and 777 nM,111000,8.6 ×10⁻² /s,1260 nM,2330,2.92,5670,2200,1.25 ×10⁻² /s,9370,2.18 ×10⁻⁶ /s,0.23 nM and 0.233 nM,
